From patent US20260139328A1, “NOVEL MICROBIAL GENOTOXINS” (Yale University, priority 2022, published 2026)

Tests used:
HeLa cells [1] = test system: HeLa cells
HeLa cells [2] = experiment: alkaline comet unwinding assay in HeLa cells; assay type: cell-based, human; details: 100 μg/ml synthetic compounds, 5-6 h
Experimental: To assess DNA damage using chemical extracts of bacterial metabolites, HeLa, MC38 or HCT116 cells were treated with 5 mg/ml ethyl-acetate extracts diluted in culture medium supplemented with 10 mM HEPES for 4-6 h.
To assess DNA damage using pure compounds, HeLa cells were treated with 100 µg/ml cisplatin, 100 μg/ml, 25 μg/ml, or 10 μg/ml indolimine-214 (1), compound 2, indolimine-200 (3), indolimine-248 (4) or 0.1% DMSO diluted in culture medium supplemented with 10 mM HEPES for 4-6 h.
After treatment with ethyl-acetate extracts or pure synthetic compounds, HeLa cells were washed with PBS and collected via trypsinization. DNA damage was assessed via alkaline single cell gel electrophoresis using the Trevigen Comet Assay kit (Trevigen, Inc.) according to the manufacturer's instructions. Briefly, cells were embedded in Comet LMAgarose and loaded onto CometSlide™. Slides were placed flat at 4° C. in the dark for 10 min and then immersed overnight in Lysis Solution at 4° C. […] Comet images were acquired using a Leica DMRB fluorescence microscope. Tail DNA % (Tail DNA content as a percentage of Comet DNA content) and Tail moment (Tail length multiplied by Tail DNA %) were analyzed with OpenComet v1.3.1., and 20-50 comets were recorded for each sample.

[3] = NMR analysis of synthetic indolimine-214 after preparative HPLC purification; details: upon preparative HPLC purification; reversible reaction in water
[4] = test system: circular pUC19 plasmid DNA

| SMILES | γ-H2AX in HeLa cells (HeLa cells [1]) | genotoxicity (γ-H2AX, HeLa) in relation to purity (HeLa cells [1]) | tailing in alkaline comet unwinding assay (HeLa cells [2]) | degradation into the two starting materials [3] | DNA damage of circular pUC19 plasmid [4] |
| --- | --- | --- | --- | --- | --- |
| CC(C)C/N=C/c1c[nH]c2ccccc12 [indolimine-200 (3)] | triggered increased 7-H2AX in HeLa cells in a dose-dependent manner | – | – | – | – |
| CC(C)CCN=Cc1c[nH]c2ccccc12 [indolimine-214 (1)] | triggered increased γ-H2AX in a dose-dependent manner | correlated directly with its purity | induced tailing | ≥ 20% | neither synthetic indolimine-214 (1) nor compound 2 alone (up to 1 mg/ml) induced DNA damage |
| C(=N\CCc1ccccc1)/c1c[nH]c2ccccc12 [indolimine-248 (4)] | triggered increased 7-H2AX in HeLa cells in a dose-dependent manner | – | – | – | – |
